Measurements reported in patent US5616342A, “Emulsioin suitable for administering a poorly water-soluble photosensitizing compound and use thereof” (PDT, Inc., priority 1995, dated 1997).

Key:
[1] = Description: Mixtures of MCT oil, egg phospholipids, ethanol, and SnEt2 were incubated with different bile salts, all at 4.6 mM^1, under the same conditions described above in Example 1.
[2] = system: transplantable, FANFT-induced, urothelial tumors; experiment: photodynamic treatment of transplantable FANFT-induced urothelial tumors with SnEt2 emulsion and red light (Example 4); format: in vivo, Fischer 344 rats
Description: (§1) Fischer 344 rats, engrafted with transplantable, chemically-induced (FANFT) urothelial tumors, were treated with tin ethyl etiopurpurin (SnEt2) and red light (660 nm). SnEt2 was administered as a bolus injection via lateral tail vein, using the emulsion described by the present invention. Tumor response was assessed in groups of nine animals injected with one of four doses of drug and exposed to one of three different doses of light, as summarized in FIG. 1. Control animals received emulsion vehicle without drug. Animals were monitored for tumor re-growth, tissue changes at treatment site, and general health three times per week for a period of 30 days after light treatment.
By determining the number of tumor-free rats 30 days after each treatment, tumor dose-response curves for drug and light were generated, shown in FIG. 1.

[3] = general health / adverse events after drug-emulsion treatment (Example 4); format: in vivo, Fischer 344 rats; conditions: i.v. bolus in emulsion plus red light, 30 days
Description: as §1

[4] = SnEt2 drug solubility in MCT oil with excipient combinations (Example 1); conditions: invention emulsion
Description: After incubating for 30 minutes at 55° C., the tubes stand overnight at room temperature (19°-22° C). The tubes are centrifuged to remove bulk precipitates, and supernatants are filtered through 0.45 μm nylon membrane to remove any undissolved drug. Aliquots of filtrate are then diluted in chloroform:isopropyl alcohol (1:1) for spectrophotometric determination of drug concentration (absorbance at 662 nm). Reference standards are prepared with known concentrations of SnEt2 in the same solvent.

[5] = pH 8.0
Description: In particular, net electronegative charge (Zeta potential) on the emulsified oil droplets is measured by changes in electrophoretic mobility at pH 8.0 (Malvern Zetasizer 2c). […] A relationship between Zeta potential and physical stability of colloidal systems has been documented.

SMILES	SnEt2 Concentration [1]	SnEt2 Concentration Normalized [1]	dose and light response by the tumor ([2]; four drug doses, three light doses, 30 days)	tumor treatment outcome ([2]; i.v. bolus in emulsion, red laser light 660 nm, 30 days after treatment)	adverse clinical events [3]	deaths attributable to drug-emulsion treatment [3]	SnEt2 concentration delivered by the present invention relative to 0.08 mg/ml [4]	effect on Zeta potential of phospholipid-stabilized emulsions [5]
CCOC(=O)C1=Cc2c3nc(cc4nc(cc5[n-]c(cc6[n-]c2c(C)c6CC)c(C)c5CC)C(C)=C4CC)[C@@H](C)[C@]13CC.[Cl-].[Cl-].[Sn] (racemic) [SnEt2, Tin ethyl etiopurpurin]	1.26 mg/gm Oil	1.00	A dose and light response by the tumor was demonstrated	effective in the treatment	No adverse clinical events were observed	no deaths occurred	over ten times	
C[C@H](CCC(=O)O)[C@H]1CC[C@H]2[C@@H]3[C@H](O)C[C@@H]4C[C@H](O)CC[C@]4(C)[C@H]3C[C@H](O)[C@]12C [sodium cholate]								increases the Zeta potential
